Assay [1] concerns S. aureus USA300. The class given is in vivo, C57BL/6J male mice. Particulars: for survival rate: 96 h; for activity of β-lactamases in bronchoalveolar lavage fluid: 36 h.
Assay [2] has as its system E. coli ZJ487 (NDM-1/MCR-1). Description: microbe, parasite or virus in culture. Particulars: for MIC: Escherichia coli; for MIC of Mep combination: Mep with the named analogue at 32 μg/mL; for FIC Index: analogue + Mep; for MIC of analogues of OA combination: analogue with Mep. It counts as cell-based, Escherichia coli.
The test system of another assay is E. coli ZJ478. It counts as in vivo, C57BL/6J male mice. Particulars: for survival rate: 120 h.
The next assay has as its target TEM-1 (Escherichia coli, UniProt P62593). Kind of assay: biochemical. The following applies: IC50, purified TEM-1.
The next assay deals with OXA-1 (Escherichia coli, UniProt P13661). Kind of assay: biochemical. The arrangement: species or system E. coli. The following applies: IC50, purified OXA-1.
Sequence of OXA-1 (P13661 26-276): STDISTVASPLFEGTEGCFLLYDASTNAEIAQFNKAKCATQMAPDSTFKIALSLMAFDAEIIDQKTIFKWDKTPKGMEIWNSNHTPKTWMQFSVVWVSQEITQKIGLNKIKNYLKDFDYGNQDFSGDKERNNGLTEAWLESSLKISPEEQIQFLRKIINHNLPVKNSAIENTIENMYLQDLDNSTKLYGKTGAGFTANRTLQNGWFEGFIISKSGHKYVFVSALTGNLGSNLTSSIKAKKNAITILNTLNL
In assay [3] the test system is NDM-1-Asp199Ala, NDM-1-Thr201Ala, and NDM-1-Phe240Ala. The class given is biochemical.
For assay [4], the system named is AmpC β-lactamase, E. coli BL21 (pET21a). It counts as biochemical. Particulars: co-culture or co-incubation with OA.
The next assay addresses NDM-1 F240A (Klebsiella pneumoniae, UniProt C7C422, F240A). Kind of assay: biochemical. The class given is binding.
The next assay relates to A549 cells. The class given is cell-based, human. Particulars: 6 h.
For the next assay, the system named is MH-S cells. It counts as cell-based, mouse. The following applies: 6 h.
For assay [5], the system named is E. coli BL21 (pET28a-SP-NDM-1). It counts as cell-based, Escherichia coli. The following applies: OA 32 μg/mL with Mep; postinoculation.
The subject of the next assay is E. coli ZJ487. The class given is cell-based, Escherichia coli. The following applies: OA 32 μg/mL with Mep; postinoculation.
Assay [6] concerns S. aureus USA300. It counts as cell-based, Staphylococcus aureus. Particulars: OA combined with penicillin G.
The next assay has as its target NDM-1 (Escherichia coli, UniProt E5KIY2). The class given is biochemical, E. coli. Particulars: OA analogues, Figure 3G.
Another assay concerns the target suilysin (SLY) (Streptococcus suis, UniProt Q55996). Description: biochemical.
Setting [7] is: monotherapy 50 mg/kg subcutaneous every 8 h.
Setting [8] is: read-out: MIC of analogues of OA alone, ZJ487, Table 1, median (range).
Setting [9] is: OA combined with penicillin G, 36 h postinfection.
Setting [10] is: named compound combined with Mep 5 mg/kg.

Like-named read-outs stand apart in the source and are kept apart here.

Sequence of TEM-1 (P62593 24-286 limits assumed): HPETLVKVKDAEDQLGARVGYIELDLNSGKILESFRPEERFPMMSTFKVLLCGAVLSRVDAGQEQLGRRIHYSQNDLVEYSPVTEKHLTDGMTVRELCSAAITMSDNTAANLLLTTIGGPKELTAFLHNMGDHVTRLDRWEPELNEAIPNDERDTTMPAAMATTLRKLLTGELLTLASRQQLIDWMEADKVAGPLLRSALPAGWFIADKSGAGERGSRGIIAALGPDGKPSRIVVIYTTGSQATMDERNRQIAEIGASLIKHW

In the assay on S. aureus USA300 [1] (setting [7]), `CC1(C)S[C@@H]2[C@H](NC(=O)Cc3ccccc3)C(=O)N2[C@H]1C(=O)O` [Penicillin G, penicillin G, reference compound] returned a survival rate of 25.0%. Also, the “activity of β-lactamases in bronchoalveolar lavage fluid” value with S. aureus USA300 [1] (monotherapy) was “such inhibition was not observed”.

As for `CC1(C)CC[C@]2(C(=O)O)CC[C@]3(C)C(=CC[C@@H]4[C@@]5(C)C[C@@H](O)[C@H](O)C(C)(C)[C@@H]5CC[C@]43C)[C@@H]2C1` [maslinic acid], the MIC in assay [2] (setting [8]) came out at 512 µg/mL. The “MIC of Mep combination” value in assay [2] (ZJ487, median (range)) is on record as 4(2–4) μg/mL. In [2] (ZJ487), the “FIC Index” value was 0.38 ± 0.00 and the “MIC of analogues of OA combination” value is 32 μg/mL.

Consider α-boswellic acid, for which the “MIC of Mep combination” value in assay [2] (ZJ487, median (range)) is given as 16(16) μg/mL. In addition, in assay [2] (ZJ487, Table 1, median (range)), the “MIC of analogues of OA alone” value was 512(≥512) μg/mL. Further, in assay [2] (ZJ487), the “FIC Index” value is 0.73 ± 0.29 and the “MIC of analogues of OA combination” value is 32 μg/mL.

In the case of `CC1(C)[C@@H](O[C@H]2O[C@H](C(=O)O)[C@@H](O)[C@H](O)[C@H]2O[C@@H]2O[C@H](C(=O)O)[C@@H](O)[C@H](O)[C@H]2O)CC[C@]2(C)[C@H]3C(=O)C=C4[C@@H]5C[C@@](C)(C(=O)O)CC[C@]5(C)CC[C@@]4(C)[C@]3(C)CC[C@@H]12` [glycyrrhizic acid], the MIC in assay [2] (setting [8]) was determined as 512 µg/mL. Further, the “MIC of Mep combination” value in [2] (ZJ487, median (range)) is on record as 8(4–16) μg/mL. For the same compound, in assay [2] (ZJ487), the “FIC Index” value was found to be 0.40 ± 0.14 and the “MIC of analogues of OA combination” value was found to be 32 μg/mL.

Consider `C[C@@H](O)[C@H]1C(=O)N2C(C(=O)O)=C(S[C@@H]3CN[C@H](C(=O)N(C)C)C3)[C@H](C)[C@H]12` [Meropenem, meropenem, reference compound], for which the MIC in assay [2] (read-out: MIC of Mep alone, ZJ487, Table 1, median (range)) amounted to 32 µg/mL. Moreover, the “MIC of Mep alone” value in assay [2] (ZJ487, Table 1, median (range), listed as Mep) is 16(16–32) μg/mL. In the assay with E. coli ZJ478 (Mep 5 mg/kg alone, subcutaneous every 8 h), the survival rate came to 44.4%.

With `CC1(C)CC[C@]2(C(=O)O)CC[C@]3(C)C(=CC[C@@H]4[C@@]5(C)CC[C@H](O)C(C)(C)[C@@H]5CC[C@]43C)[C@@H]2C1` [OA, oleanolic acid], the IC50 on TEM-1 and against OXA-1 was greater than 109 µM in each case. Moreover, in assay [3], the “inhibitory effect on activity of NDM-1 mutants” value is recorded as “significant inhibitory effect was not detected”. Further, in assay [4], the “inhibitory effect on β-lactamase activity in culture supernatant” value is listed as “No significant inhibitory effect”. The compound further showed a Kd on NDM-1 F240A of 14.3 µM. In addition, the “concentration protecting cells from hemolysin-mediated cell injury” value in the assay on A549 cells and with MH-S cells was 1 to 4 µg/mL each time. Further, the results for the “time to complete elimination” value (in [5]; with E. coli ZJ487) were no more than 6 h and no more than 3 h, respectively. In the assay on S. aureus USA300 [6], the bactericidal effect entry is on record as “significantly eliminate, but not thoroughly kill”. The survival rate is listed as 75.0% in the assay with S. aureus USA300 [1] (OA 50 mg/kg combined with penicillin G 50 mg/kg, subcutaneous every 8 h); 43.8% in the assay with S. aureus USA300 [1] (setting [7]); 61.1% with E. coli ZJ478 (setting [10]). The lung lesions entry in the assay with S. aureus USA300 [1] (OA combined with penicillin G) is “greatly alleviated”. The “IL-1β, IL-6, and TNF-α levels in bronchoalveolar lavage fluid” value with S. aureus USA300 [1] (setting [9]) is recorded as “significant decreases”. For the same compound, the “number of bacteria in the lungs” value in the assay on S. aureus USA300 [1] (setting [9]) is “significant reduction”. The “bacterial burden and inflammatory responses” value in the assay with S. aureus USA300 [1] (OA monotherapy) is listed as “also inhibited”. The “activity of β-lactamases in bronchoalveolar lavage fluid” value in the assay on S. aureus USA300 [1] (monotherapy) and in the assay on S. aureus USA300 [1] (penicillin G combined with OA) was “inhibited” in each case. For the same compound, in the assay with E. coli ZJ478 (OA combined with Mep, 36 h postinfection), the “E. coli colonization in the liver and spleen” value is listed as “significantly inhibited”.

As for `CC1(C)CC[C@]2(C(=O)O)CC[C@]3(C)C(=CC[C@@H]4[C@@]5(C)C[C@@H](O)[C@H](O)[C@@](C)(CO)[C@@H]5CC[C@]43C)[C@@H]2C1` [arjunolic acid], the MIC in assay [2] (setting [8]) stood at 512 µg/mL. Also, the “MIC of Mep combination” value in assay [2] (ZJ487, median (range)) is 8(4–16) μg/mL. Further, in [2] (ZJ487), the “FIC Index” value worked out at 0.40 ± 0.14 and the “MIC of analogues of OA combination” value is reported as 32 μg/mL.

Regarding `C[C@H]1[C@H](C)CC[C@]2(C(=O)O)CC[C@]3(C)C(=CC[C@@H]4[C@@]5(C)CC[C@H](O)C(C)(C)[C@@H]5CC[C@]43C)[C@H]12` [ursolic acid], the MIC in assay [2] (setting [8]) is 512 µg/mL. In addition, the “MIC of Mep combination” value in assay [2] (ZJ487, median (range)) is recorded as 2(2–4) μg/mL. In [2] (ZJ487), the “FIC Index” value was 0.17 ± 0.04 and the “MIC of analogues of OA combination” value came to 32 μg/mL. Besides, the “inhibitory effect against NDM-1” value against NDM-1 is recorded as “robust inhibitory effects”.

Turning to `C[C@H]1[C@H](C)CC[C@]2(C(=O)O)CC[C@]3(C)C(=CC[C@@H]4[C@@]5(C)C[C@@H](O)[C@H](O)C(C)(C)[C@@H]5CC[C@]43C)[C@H]12` [corosolic acid], the MIC in assay [2] (setting [8]) was found to be 512 µg/mL. Besides, the “MIC of Mep combination” value in assay [2] (ZJ487, median (range)) is reported as 2(2–4) μg/mL. Moreover, in assay [2] (ZJ487), the “FIC Index” value is 0.17 ± 0.04 and the “MIC of analogues of OA combination” value amounted to 32 μg/mL. The “inhibitory effect against NDM-1” value at NDM-1 is on record as “robust inhibitory effects”. This compound registered an IC50 against suilysin (SLY) of less than 2.12 µM. Moreover, the survival rate with E. coli ZJ478 (setting [10]) was found to be 77.8%.

(Values after paper PMC7254530 (ACS Omega, 2020).)
